Test results taken from ChEMBL document CHEMBL5727111, “Pyrrolidinyl urea, pyrrolidinyl thiourea and pyrrolidinyl guanidine compounds as TrkA kinase inhibitors” (2019).
pIC50: −log10 of the molar value.

Target: High affinity nerve growth factor receptor (Homo sapiens, UniProt P04629)
Assay: TrkA Omnia Assay: Trk enzymatic selectivity was assessed using Omnia Kinase Assay reagents from Invitrogen Corp. Enzyme (TrkA from Invitrogen Corp.) and test compound (various concentrations) were incubated for 10 minutes at ambient temperature in a 384-well white polypropylene plate (Nunc catalog#267462). Omnia Tyr Peptide #4, as well as ATP, were then added to the plate. Final concentrations were as follows: 20 nM enzyme, 500 μM of ATP, 10 μM peptide substrate. The assay buffer consisted of 25 mM MOPS pH 7.5, 0.005% (v/v) Triton X-100 and 5 mM MgCl2. The production of phosphorylated peptide was monitored continuously for 70 minutes using a Molecular Devices FlexStation II384 microplate reader (excitation=360 nm; emission=485 nm). Initial rates were calculated from the progress curves. IC50 values were calculated from these rates using either a 4 or 5-parameter logistic curve fit.

Chain of High affinity nerve growth factor receptor (P04629 whole entry): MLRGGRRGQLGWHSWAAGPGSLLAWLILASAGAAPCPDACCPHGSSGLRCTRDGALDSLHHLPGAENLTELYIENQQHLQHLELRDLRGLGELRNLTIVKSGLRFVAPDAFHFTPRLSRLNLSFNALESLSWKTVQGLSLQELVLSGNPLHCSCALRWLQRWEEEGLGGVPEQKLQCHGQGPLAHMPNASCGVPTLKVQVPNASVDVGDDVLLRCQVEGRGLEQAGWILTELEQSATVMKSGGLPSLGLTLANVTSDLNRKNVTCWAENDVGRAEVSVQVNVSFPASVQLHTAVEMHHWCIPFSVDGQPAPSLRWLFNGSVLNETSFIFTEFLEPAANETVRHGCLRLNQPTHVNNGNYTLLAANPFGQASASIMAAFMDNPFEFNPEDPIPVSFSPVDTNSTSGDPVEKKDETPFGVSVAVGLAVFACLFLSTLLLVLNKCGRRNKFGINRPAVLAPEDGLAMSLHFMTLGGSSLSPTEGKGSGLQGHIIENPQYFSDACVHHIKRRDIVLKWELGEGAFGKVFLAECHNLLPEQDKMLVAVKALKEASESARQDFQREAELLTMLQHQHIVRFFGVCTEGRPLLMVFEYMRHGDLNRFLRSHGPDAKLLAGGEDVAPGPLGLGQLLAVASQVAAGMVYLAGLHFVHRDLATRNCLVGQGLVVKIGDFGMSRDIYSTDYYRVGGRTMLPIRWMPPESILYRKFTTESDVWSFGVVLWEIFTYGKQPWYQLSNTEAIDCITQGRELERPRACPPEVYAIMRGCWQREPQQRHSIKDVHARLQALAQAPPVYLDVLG

Compound	pIC50
COCCN1C[C@@H](NC(=O)Nc2c(C)c(-c3cnn(C)c3)nn2-c2ccccc2)[C@H](c2cccc(C#N)c2)C1	> 7.00
COCCN1C[C@@H](NC(=O)Nc2c(C)c(-c3cnn(C)c3)nn2-c2ccccc2)[C@H](c2ccc(F)c(F)c2)C1	> 7.00
COCCN1C[C@@H](NC(=O)Nc2c(C)c(-c3cnn(C)c3)nn2-c2ccccc2)[C@H](c2ccccc2)C1	> 7.00
COCCN1C[C@@H](NC(=O)Nc2c(C)c(-c3cnn(C)c3)nn2-c2ccccc2F)[C@H](c2ccc(F)cc2)C1	> 7.00
COCCN1C[C@@H](NC(=O)Nc2c(C)c(-c3cnn(C)c3)nn2-c2ccccc2)[C@H](c2ccc(C#N)cc2)C1	> 7.00
COCCN1C[C@@H](NC(=O)Nc2c(Br)c(C)nn2-c2ccccc2)[C@H](c2cc(F)cc(F)c2)C1	> 7.00
COCCN1C[C@@H](NC(=O)Nc2cc(-c3ccc(C(=O)N(C)C)cc3)nn2C)[C@H](c2ccc(F)c(F)c2)C1	> 7.00
CCOc1nn(-c2ccccc2)c(NC(=O)N[C@@H]2CN(CCOC)C[C@H]2c2cncc(Cl)c2)c1C (relative stereo)	> 7.00
COCCN1C[C@@H](NC(=O)Nc2c(C)c(-c3cnn(C)c3)nn2-c2ccccc2)[C@H](c2csnn2)C1 (relative stereo)	> 7.00
COCCN1C[C@@H](NC(=O)Nc2c(Cl)c(-c3cnn(C)c3)nn2-c2ccccc2)[C@H](c2cncc(F)c2)C1	> 7.00
Cc1c(-c2ccc(=O)n(C)c2)nn(-c2ccccc2)c1NC(=O)N[C@H]1CN(CC(F)(F)F)C[C@@H]1c1ccccc1	> 7.00
CCOc1nn(-c2ccccc2)c(NC(=O)N[C@H]2CN(CC(F)(F)F)C[C@@H]2c2cccc(F)c2)c1C	> 7.00
COCCN1C[C@@H](NC(=O)Nc2c(C)c(-c3cnn(C)c3)nn2-c2cccc(F)c2)[C@H](c2ccc(F)cc2)C1	> 7.00
COCCN1C[C@@H](NC(=O)Nc2c(Cl)c(C)nn2-c2ccccc2)[C@H](c2cc(F)cc(F)c2)C1	> 7.00
COCCN1C[C@@H](NC(=O)Nc2c(C)c(-c3cnn(C)c3)nn2-c2cccc(Cl)c2)[C@H](c2ccc(F)c(F)c2)C1	> 7.00
COCCN1C[C@@H](NC(=O)Nc2c(C)c(-c3cnn(C)c3)nn2-c2ccccc2)[C@H](c2ccc(F)cn2)C1 (relative stereo)	> 7.00
COCCN1C[C@@H](NC(=O)Nc2c(Br)c(C)nn2-c2ccccc2)[C@H](c2ccc(F)cn2)C1 (relative stereo)	> 7.00
Cn1cc(-c2nn(-c3ccccc3)c(NC(=O)N[C@H]3CN(CC(F)(F)F)C[C@@H]3c3ccccc3)c2Cl)cn1	> 7.00
O=C(Nc1c2c(nn1-c1ccccc1)CCC2)N[C@@H]1CN(CC(F)F)C[C@H]1c1ccc(F)cc1 (relative stereo)	> 7.00
COCCN1C[C@@H](NC(=O)Nc2c(C)c(-c3cnn(C)c3)nn2-c2ccc(F)c(Cl)c2)[C@H](c2ccc(F)c(F)c2)C1	> 7.00
COCCN1C[C@@H](NC(=O)Nc2c(SC)c(C)nn2-c2ccccc2)[C@H](c2ccc(F)c(F)c2)C1	> 7.00
COCCN1C[C@@H](NC(=O)Nc2c(C)c(-c3cnn(C)c3)nn2-c2cccc(Cl)c2F)[C@H](c2ccc(F)c(F)c2)C1	> 7.00
COc1ncccc1N1C[C@@H](NC(=O)Nc2c(C)c(-c3cnn(C)c3)nn2-c2ccccc2)[C@H](c2ccccc2)C1	> 7.00
